Molecular target: Transient receptor potential cation channel subfamily A member 1 (Homo sapiens, UniProt O75762)
Experiment: Dose Response Assay: Compound plates were resuspended with 100 ul of HBSS/20 mM HEPES/0.005% BSA buffer (Compound Buffer): column 1A-H: buffer/DMSO (bk); column 2A-H: AP-18 (control antagonist for CHOK1 TRPA1 cells); column 1I-P: ATP (control for CHOK1 teton cells); column 2 I-P: 2APB (control antagonist for CHOK1/TRPM8 cells). Growth media was removed from the cell plates (20 ul) and 20 ul of the Replacement Buffer was added followed by addition of 25 ul of diluted dye. All three steps were performed using a Plate Washer BioTek 407. The plates were then incubated for 30' at RT. After incubation, both the cell and compound plates were brought to the FLIPR and 20 ul of the diluted compounds/antagonist/bk were transferred to the cell plates by the FLIPR. Plates were then incubated for 30' at room temperature. After 30' incubation, plates were returned to the FLIPR and 20 ul of 4.5× Cinnamaldehyde was added to the cell plates. During the compound addition as well as agonist addition, fluorescence readings were taken simultaneously from all 384 wells of the cell plate every 1.5 seconds. Five readings were taken to establish a stable baseline, then 20 ul of sample was rapidly (30 ul/sec) and simultaneously added to each well of the cell plate. […]

Chain of Transient receptor potential cation channel subfamily A member 1 (O75762 whole entry): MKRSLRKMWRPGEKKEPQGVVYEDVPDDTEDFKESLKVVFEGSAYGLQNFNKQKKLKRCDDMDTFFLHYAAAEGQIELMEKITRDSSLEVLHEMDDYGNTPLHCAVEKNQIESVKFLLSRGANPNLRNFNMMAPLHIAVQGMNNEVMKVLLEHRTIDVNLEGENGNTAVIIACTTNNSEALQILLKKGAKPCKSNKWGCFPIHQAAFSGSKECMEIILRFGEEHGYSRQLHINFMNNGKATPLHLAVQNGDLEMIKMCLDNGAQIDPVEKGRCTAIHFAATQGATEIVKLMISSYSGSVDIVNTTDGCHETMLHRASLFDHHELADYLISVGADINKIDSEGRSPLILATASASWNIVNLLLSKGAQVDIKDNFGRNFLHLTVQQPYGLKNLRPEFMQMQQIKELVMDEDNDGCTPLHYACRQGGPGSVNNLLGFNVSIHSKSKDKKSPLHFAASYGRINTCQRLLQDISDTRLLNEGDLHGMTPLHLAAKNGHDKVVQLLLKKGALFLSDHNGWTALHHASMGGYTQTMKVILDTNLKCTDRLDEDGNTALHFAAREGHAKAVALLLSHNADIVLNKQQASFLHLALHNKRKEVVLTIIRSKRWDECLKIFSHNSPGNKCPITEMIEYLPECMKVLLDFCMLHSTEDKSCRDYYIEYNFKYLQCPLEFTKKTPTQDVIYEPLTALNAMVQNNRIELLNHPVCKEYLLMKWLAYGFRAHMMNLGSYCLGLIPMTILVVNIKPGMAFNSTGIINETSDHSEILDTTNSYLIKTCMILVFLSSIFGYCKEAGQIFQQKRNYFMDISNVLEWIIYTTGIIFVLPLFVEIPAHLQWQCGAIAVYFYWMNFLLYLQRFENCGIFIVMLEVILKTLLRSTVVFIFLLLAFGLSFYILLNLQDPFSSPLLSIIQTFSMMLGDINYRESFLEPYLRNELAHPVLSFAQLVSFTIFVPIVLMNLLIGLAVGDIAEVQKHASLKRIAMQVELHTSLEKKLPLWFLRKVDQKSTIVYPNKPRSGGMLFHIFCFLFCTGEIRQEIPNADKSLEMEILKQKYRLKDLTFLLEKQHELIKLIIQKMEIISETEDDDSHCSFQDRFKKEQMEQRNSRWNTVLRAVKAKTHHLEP

`CN(CC(=O)NCC1CN(c2ccc(C(F)(F)F)cc2)CCO1)S(=O)(=O)c1ccc(F)cc1` (stereo unspecified) was tested, and the IC50 was 1520 nM.
